The values that follow come from ChEMBL document CHEMBL3860026, “Depsidones from Lichens as Natural Product Inhibitors of M-Phase Phosphoprotein 1, a Human Kinesin Required for Cytokinesis” (J Nat Prod, 2016).

The nature of series [1]: Passive permeability of the compound assessed as compound recovery at 10 uM after 5 hrs by PAMPA. Format: ADME. To be noted: read-out: Drug recovery. On the technique in general: In PAMPA a lipid-coated filter parts donor from acceptor wells.
The target in series [2] is T1, Kinesin-like protein KIF20B (Homo sapiens, UniProt Q96Q89). Nature of the series: Inhibition of microtubule-stimulated ATPase activity of N-terminal His6-tagged/SUMO-fused human MPP1 motor domain (2 to 477 residues) expressed in Escherichia coli BL21 CodonPlus by pyruvate kinase/lactate dehydrogenase-linked assay.
Series [3] deals with T2, Chromosome-associated kinesin KIF4A (Homo sapiens) (UniProt O95239).
T2 sequence (whole entry): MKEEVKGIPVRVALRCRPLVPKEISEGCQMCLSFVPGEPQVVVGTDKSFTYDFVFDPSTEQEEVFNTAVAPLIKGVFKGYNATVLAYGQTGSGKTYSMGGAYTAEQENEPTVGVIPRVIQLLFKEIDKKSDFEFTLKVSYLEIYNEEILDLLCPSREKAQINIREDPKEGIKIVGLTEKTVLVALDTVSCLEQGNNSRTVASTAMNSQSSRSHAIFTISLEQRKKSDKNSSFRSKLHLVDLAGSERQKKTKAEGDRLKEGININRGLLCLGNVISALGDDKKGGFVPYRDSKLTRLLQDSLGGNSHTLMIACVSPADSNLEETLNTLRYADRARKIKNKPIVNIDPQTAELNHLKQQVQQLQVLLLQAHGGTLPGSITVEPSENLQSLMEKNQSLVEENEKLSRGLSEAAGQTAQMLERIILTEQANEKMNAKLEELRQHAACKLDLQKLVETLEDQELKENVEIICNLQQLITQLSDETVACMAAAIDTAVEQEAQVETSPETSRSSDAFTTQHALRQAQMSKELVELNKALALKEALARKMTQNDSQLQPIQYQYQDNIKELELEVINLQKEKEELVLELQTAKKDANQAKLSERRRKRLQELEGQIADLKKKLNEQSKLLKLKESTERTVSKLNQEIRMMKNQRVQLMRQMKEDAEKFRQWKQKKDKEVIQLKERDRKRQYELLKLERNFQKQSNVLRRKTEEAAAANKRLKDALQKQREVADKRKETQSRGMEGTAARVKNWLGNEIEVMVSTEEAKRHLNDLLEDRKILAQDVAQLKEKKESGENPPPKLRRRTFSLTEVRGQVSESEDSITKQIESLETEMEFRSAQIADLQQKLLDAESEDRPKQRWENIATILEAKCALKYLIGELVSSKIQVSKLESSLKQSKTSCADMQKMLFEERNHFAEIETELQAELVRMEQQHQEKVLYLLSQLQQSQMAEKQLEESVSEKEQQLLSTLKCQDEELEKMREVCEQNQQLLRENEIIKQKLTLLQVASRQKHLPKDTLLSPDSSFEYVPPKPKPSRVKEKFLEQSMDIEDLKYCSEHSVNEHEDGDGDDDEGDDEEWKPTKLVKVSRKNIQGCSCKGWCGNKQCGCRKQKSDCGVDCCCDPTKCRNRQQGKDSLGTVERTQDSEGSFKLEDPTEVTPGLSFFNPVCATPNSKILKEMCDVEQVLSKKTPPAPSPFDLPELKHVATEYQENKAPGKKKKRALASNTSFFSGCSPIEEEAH
Description: Inhibition of basal ATPase activity of human Kif4A at 200 uM by pyruvate kinase/lactate dehydrogenase-linked assay.

Series [4] can be described thus: Intrinsic clearance in mouse liver microsomes assessed per mg of protein at 3 uM after 5 to 60 mins by LC-MS/MS method. In kind it is ADME. The conditions noted are these: read-out: CLH. (Liver microsomes are vesicles of endoplasmic reticulum, rich in cytochrome P450 enzymes.)
Series [5] has as its target T2, Chromosome-associated kinesin KIF4A (Homo sapiens). Description: Inhibition of microtubule-stimulated ATPase activity of human Kif4A at 200 uM by pyruvate kinase/lactate dehydrogenase-linked assay.
For series [6], the target named is T1, Kinesin-like protein KIF20B. Nature of the series: Inhibition of basal ATPase activity of N-terminal His6-tagged/SUMO-fused human MPP1 motor domain (2 to 477 residues) expressed in Escherichia coli BL21 CodonPlus in presence of 0.1% Tween-20 by pyruvate kinase/lactate dehydrogenase-linked assay.
Series [7] can be described thus: Chemical stability of the compound at 5 uM after 15 to 120 mins by LC-MS/MS method. In kind it is physicochemical.
Series [8] in a line: Solubility of the compound in phosphate buffered saline at pH 2 after 2 hrs by turbidimetric method. Format: physicochemical.
A short description of series [9]: n-octanol-buffer distribution co-efficient, log D of the compound at pH 7.4 by shake flask method. Format: physicochemical.
The nature of series [10]: Cytotoxicity against human K562 cells assessed as growth inhibition after 72 hrs by Alamar Blue assay. To be noted: K562, 72 h. In kind it is functional, cell-based.
Series [11] addresses T3, Kinesin-like protein KIF9 (Homo sapiens) (UniProt Q9HAQ2).
T3 sequence (whole entry): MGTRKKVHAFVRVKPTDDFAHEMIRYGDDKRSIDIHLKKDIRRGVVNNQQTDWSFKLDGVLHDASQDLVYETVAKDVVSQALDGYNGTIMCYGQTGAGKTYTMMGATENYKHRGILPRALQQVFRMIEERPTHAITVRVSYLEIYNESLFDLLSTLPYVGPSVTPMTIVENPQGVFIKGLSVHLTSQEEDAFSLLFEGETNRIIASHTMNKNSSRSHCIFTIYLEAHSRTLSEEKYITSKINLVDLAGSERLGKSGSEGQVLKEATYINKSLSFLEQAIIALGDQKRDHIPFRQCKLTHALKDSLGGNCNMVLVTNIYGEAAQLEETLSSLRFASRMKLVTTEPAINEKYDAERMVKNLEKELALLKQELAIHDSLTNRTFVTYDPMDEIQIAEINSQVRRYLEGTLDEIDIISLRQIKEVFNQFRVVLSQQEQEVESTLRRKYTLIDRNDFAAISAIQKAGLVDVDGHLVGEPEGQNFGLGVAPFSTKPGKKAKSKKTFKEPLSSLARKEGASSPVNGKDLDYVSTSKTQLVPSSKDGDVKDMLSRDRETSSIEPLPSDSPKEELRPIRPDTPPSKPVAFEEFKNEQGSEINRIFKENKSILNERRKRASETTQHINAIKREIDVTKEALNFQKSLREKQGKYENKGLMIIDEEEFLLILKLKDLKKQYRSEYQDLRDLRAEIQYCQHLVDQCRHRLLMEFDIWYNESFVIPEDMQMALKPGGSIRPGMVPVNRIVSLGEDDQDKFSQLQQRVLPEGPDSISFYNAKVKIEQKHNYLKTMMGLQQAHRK
Nature of the series: Inhibition of microtubule-stimulated ATPase activity of human Kif9 at 200 uM by pyruvate kinase/lactate dehydrogenase-linked assay.

Series [12] addresses T1, Kinesin-like protein KIF20B. Description: Inhibition of basal ATPase activity of N-terminal His6-tagged/SUMO-fused human MPP1 motor domain (57 to 491 residues) expressed in Escherichia coli BL21 CodonPlus by pyruvate kinase/lactate dehydrogenase-linked assay.
Series [13] in a line: Cytotoxicity against human J82 cells assessed as growth inhibition after 72 hrs by Alamar Blue assay. Format: functional, cell-based. To be noted: J82, 72 h. (Resazurin is reduced to fluorescent resorufin, in cell work by metabolically active cells.)
The nature of series [14]: Cytotoxicity against human UM-UC-3 cells assessed as growth inhibition after 72 hrs by Alamar Blue assay. Format: functional, cell-based. To be noted: UMUC3, 72 h.
Series [15] addresses Centromere-associated protein E (Homo sapiens, UniProt Q02224). Description: Inhibition of microtubule-stimulated ATPase activity of human CENP-E by pyruvate kinase/lactate dehydrogenase-linked assay.

Values after ≈ are worked out from the molar mass of the structure shown. Active and inactive are the calls of the source. No cut-off for these calls is given here.

T1 sequence (Q96Q89 whole entry, the tested form may be a part): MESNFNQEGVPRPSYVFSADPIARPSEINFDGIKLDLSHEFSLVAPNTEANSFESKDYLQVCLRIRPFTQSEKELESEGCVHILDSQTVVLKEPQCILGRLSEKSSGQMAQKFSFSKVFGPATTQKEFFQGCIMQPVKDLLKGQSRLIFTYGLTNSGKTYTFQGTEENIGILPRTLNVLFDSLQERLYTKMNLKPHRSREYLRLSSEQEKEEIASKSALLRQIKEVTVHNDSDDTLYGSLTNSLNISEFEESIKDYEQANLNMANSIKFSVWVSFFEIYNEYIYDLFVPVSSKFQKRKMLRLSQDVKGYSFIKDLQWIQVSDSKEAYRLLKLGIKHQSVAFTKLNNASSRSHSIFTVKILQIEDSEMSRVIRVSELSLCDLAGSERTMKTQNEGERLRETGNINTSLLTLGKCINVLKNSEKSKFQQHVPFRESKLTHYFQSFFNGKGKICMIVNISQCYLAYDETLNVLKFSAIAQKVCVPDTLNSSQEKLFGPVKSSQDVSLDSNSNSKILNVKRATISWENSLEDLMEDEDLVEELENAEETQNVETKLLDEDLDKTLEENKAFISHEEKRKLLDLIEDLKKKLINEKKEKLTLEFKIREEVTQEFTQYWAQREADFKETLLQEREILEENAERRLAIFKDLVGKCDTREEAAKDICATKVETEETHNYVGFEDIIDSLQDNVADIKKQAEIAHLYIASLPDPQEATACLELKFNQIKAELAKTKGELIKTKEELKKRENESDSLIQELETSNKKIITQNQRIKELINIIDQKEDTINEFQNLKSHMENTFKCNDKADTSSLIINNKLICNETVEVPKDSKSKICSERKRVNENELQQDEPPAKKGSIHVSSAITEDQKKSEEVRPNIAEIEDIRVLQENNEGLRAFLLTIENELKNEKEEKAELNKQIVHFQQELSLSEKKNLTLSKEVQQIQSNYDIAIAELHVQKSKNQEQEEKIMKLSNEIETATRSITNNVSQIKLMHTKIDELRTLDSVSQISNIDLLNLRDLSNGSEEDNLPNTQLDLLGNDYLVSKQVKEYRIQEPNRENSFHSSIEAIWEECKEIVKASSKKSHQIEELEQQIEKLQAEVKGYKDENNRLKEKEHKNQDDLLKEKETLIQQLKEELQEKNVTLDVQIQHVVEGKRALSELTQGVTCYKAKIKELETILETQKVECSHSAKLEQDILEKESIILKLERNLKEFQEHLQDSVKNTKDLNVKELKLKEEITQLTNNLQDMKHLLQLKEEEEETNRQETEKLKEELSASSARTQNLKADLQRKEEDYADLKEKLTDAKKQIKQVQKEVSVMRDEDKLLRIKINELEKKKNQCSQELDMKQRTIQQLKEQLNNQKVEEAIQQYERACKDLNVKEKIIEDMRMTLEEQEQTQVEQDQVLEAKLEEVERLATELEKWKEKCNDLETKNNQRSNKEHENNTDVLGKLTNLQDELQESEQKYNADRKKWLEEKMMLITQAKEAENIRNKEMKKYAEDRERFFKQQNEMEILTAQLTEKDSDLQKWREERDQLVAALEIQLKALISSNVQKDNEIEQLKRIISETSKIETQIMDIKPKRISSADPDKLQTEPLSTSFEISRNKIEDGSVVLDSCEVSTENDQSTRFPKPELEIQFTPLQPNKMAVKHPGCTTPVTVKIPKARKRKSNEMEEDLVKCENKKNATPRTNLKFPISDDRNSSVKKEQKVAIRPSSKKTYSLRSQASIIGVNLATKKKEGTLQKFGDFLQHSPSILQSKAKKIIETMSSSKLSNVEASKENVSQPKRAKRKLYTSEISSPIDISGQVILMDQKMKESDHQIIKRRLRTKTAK
Chain of Centromere-associated protein E (Q02224 whole entry): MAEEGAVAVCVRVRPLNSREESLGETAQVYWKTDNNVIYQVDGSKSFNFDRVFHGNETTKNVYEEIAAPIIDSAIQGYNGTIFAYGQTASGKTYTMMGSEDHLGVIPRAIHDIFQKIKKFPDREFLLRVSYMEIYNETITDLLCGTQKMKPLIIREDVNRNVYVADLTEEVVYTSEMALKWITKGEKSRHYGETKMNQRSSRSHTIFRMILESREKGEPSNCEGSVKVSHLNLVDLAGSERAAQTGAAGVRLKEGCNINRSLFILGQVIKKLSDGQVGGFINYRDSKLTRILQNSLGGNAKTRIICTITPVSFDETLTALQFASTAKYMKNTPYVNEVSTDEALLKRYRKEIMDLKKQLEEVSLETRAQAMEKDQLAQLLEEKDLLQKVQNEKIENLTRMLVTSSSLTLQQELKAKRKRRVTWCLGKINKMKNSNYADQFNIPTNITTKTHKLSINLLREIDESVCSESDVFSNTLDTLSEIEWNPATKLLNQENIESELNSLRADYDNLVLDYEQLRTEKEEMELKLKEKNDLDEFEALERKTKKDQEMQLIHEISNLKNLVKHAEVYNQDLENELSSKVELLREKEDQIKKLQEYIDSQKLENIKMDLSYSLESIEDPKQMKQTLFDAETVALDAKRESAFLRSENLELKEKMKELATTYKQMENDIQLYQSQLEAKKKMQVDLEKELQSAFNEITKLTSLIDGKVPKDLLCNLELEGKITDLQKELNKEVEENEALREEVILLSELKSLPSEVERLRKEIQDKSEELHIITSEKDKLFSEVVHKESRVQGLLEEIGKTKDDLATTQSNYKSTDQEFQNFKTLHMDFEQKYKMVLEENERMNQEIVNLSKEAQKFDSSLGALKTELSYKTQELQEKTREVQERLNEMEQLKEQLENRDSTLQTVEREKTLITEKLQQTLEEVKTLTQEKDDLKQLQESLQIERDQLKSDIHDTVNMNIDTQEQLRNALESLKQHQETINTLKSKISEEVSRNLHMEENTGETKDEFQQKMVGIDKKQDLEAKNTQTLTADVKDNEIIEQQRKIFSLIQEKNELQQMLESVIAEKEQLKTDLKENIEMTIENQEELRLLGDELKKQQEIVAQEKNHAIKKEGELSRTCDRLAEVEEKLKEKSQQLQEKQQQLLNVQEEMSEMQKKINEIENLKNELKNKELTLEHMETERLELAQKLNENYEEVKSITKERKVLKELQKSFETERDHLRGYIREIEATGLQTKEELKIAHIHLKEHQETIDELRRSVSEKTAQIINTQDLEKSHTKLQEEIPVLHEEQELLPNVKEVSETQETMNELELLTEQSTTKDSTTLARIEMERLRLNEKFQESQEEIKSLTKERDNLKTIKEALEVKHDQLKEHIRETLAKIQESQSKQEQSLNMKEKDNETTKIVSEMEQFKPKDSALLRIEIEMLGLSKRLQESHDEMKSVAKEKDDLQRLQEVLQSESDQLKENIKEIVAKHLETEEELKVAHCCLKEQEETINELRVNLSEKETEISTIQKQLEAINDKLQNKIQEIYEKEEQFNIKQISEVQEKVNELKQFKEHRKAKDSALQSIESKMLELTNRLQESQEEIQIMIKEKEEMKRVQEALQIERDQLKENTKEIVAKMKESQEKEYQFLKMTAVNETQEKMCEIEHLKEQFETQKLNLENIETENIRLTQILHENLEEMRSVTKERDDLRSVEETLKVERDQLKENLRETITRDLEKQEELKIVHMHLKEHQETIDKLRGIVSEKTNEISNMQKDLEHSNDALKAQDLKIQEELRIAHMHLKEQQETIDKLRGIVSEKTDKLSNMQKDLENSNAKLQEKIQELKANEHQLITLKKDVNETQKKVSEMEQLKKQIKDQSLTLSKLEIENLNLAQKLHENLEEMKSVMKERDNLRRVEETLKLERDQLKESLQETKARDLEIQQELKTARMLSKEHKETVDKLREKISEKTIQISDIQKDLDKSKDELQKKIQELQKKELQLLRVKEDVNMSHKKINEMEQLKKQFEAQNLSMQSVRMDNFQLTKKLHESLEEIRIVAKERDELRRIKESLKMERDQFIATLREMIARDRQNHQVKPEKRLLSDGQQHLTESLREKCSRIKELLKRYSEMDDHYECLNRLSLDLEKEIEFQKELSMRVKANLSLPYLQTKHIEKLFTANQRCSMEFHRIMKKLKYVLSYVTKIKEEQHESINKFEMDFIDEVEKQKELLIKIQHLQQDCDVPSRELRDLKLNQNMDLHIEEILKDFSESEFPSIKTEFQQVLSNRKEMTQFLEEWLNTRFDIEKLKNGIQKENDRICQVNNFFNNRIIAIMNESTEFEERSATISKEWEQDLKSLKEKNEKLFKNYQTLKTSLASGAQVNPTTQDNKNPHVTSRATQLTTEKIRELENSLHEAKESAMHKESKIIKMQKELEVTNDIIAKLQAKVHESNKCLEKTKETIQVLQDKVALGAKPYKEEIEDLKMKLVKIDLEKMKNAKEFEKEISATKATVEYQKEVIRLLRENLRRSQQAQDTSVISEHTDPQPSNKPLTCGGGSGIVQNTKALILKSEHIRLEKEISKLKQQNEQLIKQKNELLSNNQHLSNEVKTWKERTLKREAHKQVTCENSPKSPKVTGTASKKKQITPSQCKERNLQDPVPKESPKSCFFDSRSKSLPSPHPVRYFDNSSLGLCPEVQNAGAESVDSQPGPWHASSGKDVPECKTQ

Usually IC50 stands for the concentration needed to halve the response being measured. High values mean a need for much substance, low ones inhibition by little substance. A word on the inhibition: it is how much of the control response was suppressed. For orientation: solubility (kinetic) means solubility judged after dilution from a stock solution rather than from solid. A word on the logD: it is lipophilicity at a set pH, counting ionised and neutral species. Read a high logD as higher lipophilicity. One may read the EC50 as the midpoint of the concentration-response curve. Consider `CCCCCC(=O)Cc1cc(O)cc2c1C(=O)Oc1cc(O)c(C(=O)O)c(CCCCC)c1O2` [PHYSODIC ACID], for which the recovery at 5 h, 10 µM in [1] came to 77%. The concentration for half-maximal inhibition (IC50) in [2] is 4.6 µM; in [12], 9.9 µM; in series [15], 91.4 µM. Besides, the Imax in [2] stood at 95%; in series [12], 85%. In addition, the inhibition was determined as 40% in series [3], 40% in series [5] and 50% in series [11]. Besides, the microsomal CLint at 3 µM in [4] is 61.6 µL/min/mg. In addition, the inhibition entry in [6] is “Active”. For the same compound, in series [7], the Stability result is “Stable”. In series [8], this compound displayed a kinetic solubility at 2 h of 3.75 µM (≈ 1.76 µg/mL). The pH-dependent lipophilicity (logD) in series [9] was 3. In addition, the concentration for a half-maximal effect (EC50) in series [10] came to 32.6 µM; in series [13], 38.2 µM; in series [14] it was 31.8 µM.
